System: blood vessels within the dorsal window chamber
Format: in vivo, Syrian golden hamsters
Settings: 150 kD FITC-Dextran conjugate; fluorescence microscopy
Excerpt: Syrian golden hamsters (Charles River Laboratories, Kingston, N.Y.) weighing between 60-70 gram were surgically implanted with titanium back-pack window chambers as described ([…] et al., 1980; Colantuoni et al., 1984; […] et al., 1994). Prior to the surgical procedure, the dorsal surface of the mouse was shaved with electric clippers (Sunbeam Oster 2-Speed, 150 Cadillac Lane, McMinnville, Tenn., 37110) and then the shaved skin covered in a depilatory cream (Nair, Carter Products, New York, N.Y., 10105) for 10 minutes to remove the remaining hair. A dorsal skin fold consisting of two layers of skin and muscle tissue was then sandwiched between two opposing titanium frames (Campus Research Machine Shop, University of California, San Diego 9500 Gilman Drive, La Jolla, Calif.) with a 15 mm circular opening in each. Layers of skin and muscle fascia were separated from the sub-cutaneous tissue, and removed until a thin monolayer of muscle and one layer of intact skin remained. A coverglass (Type Circle 1, Part #12-545-80 sourced from Fisher Scientific, 2761 Walnut Avenue, Tustin, Calif., 92780) held by an expansion ring in the circular window of one titanium frame was then placed on the exposed tissue to allow direct microscopic visualization of the vasculature. The window in the second opposing titanium frame was left open exposing the intact skin. Two days following the implantation of the titanium chamber, an in-dwelling PE10 catheter (VVR Scientific, Westchester, Pa.) was implanted in the carotid artery. The catheter tubing was passed sub-cutaneously from the ventral to the dorsal side of the neck, and exteriorized through the skin at the base of the chamber. The patency of the catheter was ensured by daily flushing of the in-dwelling implanted tip with 0.005-0.01 ml of heparinized saline (40 IU/ml). The heparin was sourced from Upjohn Co., 100 Route […], Prepack, N.J., 07977, and the saline from Abbott Laboratories, North Chicago, Ill., 60064. Microvascular observations using an intra-vital microscope were not undertaken until at least 4 days post-chamber implantation to mitigate against post-surgical trauma, and to confirm that blood vessels within the chamber were functioning and intact and patent. A chamber was considered suitable for subsequent studies if microscopic examination of the preparation met the following criteria (as applied in […] et al., 1994): The intra-vital microscopic studies were undertaken on un-sedated animals held in a Plexiglass tube (Campus Research Machine Shop, University of California, San Diego 9500 Gilman Drive, La Jolla, Calif.) from which the window chamber sandwich protruded horizontally, allowing visualization of the chamber on the microscope stage. The Plexiglass tube acted to restrain the animals without impeding respiration. The intra-vital microscopy was performed using a Leitz Ortholux II (McBain Instruments, Inc., 9601 […] Avenue, Chatsworth, Calif., 91311) fitted with a Leitz Wetzlar 25× saline immersion objective lens, 0.6 numerical aperture (McBain Instruments, Inc., 9601 […] Avenue, Chatsworth, Calif., 91311), a Leitz Wetzlar 10× dry Planfluotar lens, 0.3 numerical aperture (McBain Instruments, Inc., 9601 […] Avenue, Chatsworth, Calif., 91311) and a Leitz Wetzlar 4× EF dry lens, 0.12 numerical aperture (McBain Instruments, Inc., 9601 […] Avenue, Chatsworth, Calif., 91311). A 100 Watt Hg light source (Olympus Corporation, 2 Corporate Center Drive, Melville, N.Y., 11747-3157) was used for both trans- and epi-illumination. For the trans-illumination studies the light was filtered using a 420 nm blue filter which selectively passed light in the region of the maximum absorbance band of hemoglobin, causing the red blood cells to appear as dark objects against a gray background. In addition, a heat filter was placed in the light path prior to the condenser to prevent hyperthermic effects on the tissue being examined.

Substance: fluorescein diisothiocyanate dextran [FITC-Dextran, reference compound]
- Retention of the molecule in the treated tissue field following PhotoPoint-induced release from the vasculature: at least 48 hrs

Source: US20040044304A1, “Local drug delivery using photosensitizer-mediated and electromagnetic radiation enhanced vascular permeability” (priority 2002, published 2004)
